# Molecular target: T1, fascin1 (Homo sapiens, UniProt Q16658)
# T1 construct: gene FSCN1; commercial purified fascin1 (Hypermol)
# Assay: F-actin bundling, low-speed cosedimentation
# Assay type: biochemical
# Conditions: 1 µM fascin1; 10 µM F-actin
smiles,measurement,value
CN(C)CCCN1c2ccccc2CCc2ccccc21 [imipramine],"F-actin bundling, low-speed cosedimentation","upon imipramine addition, the F-actin pellet fraction significantly diminished in favor of the supernatant"

# Reference: publication PMC7062870 (Experimental & Molecular Medicine, 2020)
